Our source for the IC50 values is patent US20140315886A1, “QUINAZOLINES AS THERAPEUTIC COMPOUNDS AND RELATED METHODS OF USE” (OTSUKA PHARMACEUTICAL CO., LTD., priority 2011, published 2014).

Structures are written as SMILES. pIC50: −log10 of the molar value. Where a name gives a salt, the structure may show the parent alone.

The target in the experiment is T1, purified STEP46 enzyme (Homo sapiens, UniProt P54829).
T1 sequence (P54829 197-565 limits assumed): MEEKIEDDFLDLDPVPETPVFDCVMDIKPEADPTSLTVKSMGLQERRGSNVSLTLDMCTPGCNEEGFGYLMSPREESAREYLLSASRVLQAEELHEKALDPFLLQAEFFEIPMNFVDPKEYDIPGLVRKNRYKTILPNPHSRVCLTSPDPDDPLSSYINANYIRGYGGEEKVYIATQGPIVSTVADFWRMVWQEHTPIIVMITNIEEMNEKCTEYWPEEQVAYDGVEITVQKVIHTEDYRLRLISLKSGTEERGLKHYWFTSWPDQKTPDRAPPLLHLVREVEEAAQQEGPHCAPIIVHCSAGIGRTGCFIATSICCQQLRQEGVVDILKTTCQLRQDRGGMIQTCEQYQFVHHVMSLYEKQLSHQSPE
Description: STEP46 biochemical assay (DiFMUP fluorescence phosphatase assay). The conditions noted are these: DiFMUP 10 μM, read-out: STEP IC50. How it is done:
Serial dilutions of compounds were performed in 100% DMSO and 1 uL of compounds were dispensed into 384-well black polystyrene plates (Corning, N.Y.). Compounds were incubated with 24 uL of buffer containing 50 mM Hepes, 1 mM DTT, 0.02% Brij35, 1 ng/well purified STEP46 enzyme for […] at room temperature. The reaction was initiated by addition of 25 uL of DiFMUP (6,8-difluoro-4-methylumbelliferyl phosphate) (InVitrogen, CA) with a final concentration of 10 μM and incubated at 27° C. for 90 mM Final DMSO concentration is 2%. Plates were read with florescence intensity at excitation/emission of 360/460 nm using a PheraStar plate reader (BMG Labtech, NC).
Data were expressed as percentage (%) inhibition of enzyme activity. 0% inhibition is defined as the RFUs (relative fluorescence units) in the absence of compounds and 100% inhibition is defined as RFUs in the absence of STEP46 enzyme. IC50 values of compounds with inhibitory activity against STEP46 were determined by GraphPad Prism (version 4.03) using four parameter logistic equation. Some compounds act as activators. For compounds showing STEP46 enzymatic activation, data are represented as percentage of inhibition but with negative values at three representative concentrations (25, 50 and 100 uM).
`CNc1nc(-c2cccnc2)nc2c(F)cc(-c3cccc(F)c3)cc12` [Compound 563]: the pIC50 was 5.00 to 6.00. The same measure for `CNc1nc(-c2cccnc2)nc2cc(-c3ccccc3F)c(F)cc12` [Compound 552]: 5.00 to 6.00; for `Cn1ccc2c(-c3ccc4nc(-c5cccnc5)nc(NCc5ccccn5)c4c3)cccc21` [Compound 341]: < 5.00; for `CNc1nc(-c2cccnc2)nc2cc(-c3cc(F)cc(OC)c3)ccc12` [Compound 279]: > 6.00. Turning to `CNc1nc(-c2cccnc2)nc2c(F)c(-c3cccc(F)c3)ccc12` [Compound 510], the pIC50 was 5.00 to 6.00.

Consider `COc1ccc2nc(-c3cccnc3)nc(N3CCc4ccc(Cl)cc43)c2c1` [Compound 4], for which the pIC50 is 5.00 to 6.00.

Consider `Cc1c(-c2cccc(C#N)c2)ccc2c(N(C)C)nc(-c3cccnc3)nc12` [Compound 290], for which the pIC50 is < 5.00. As to `CNc1nc(-c2cccnc2)nc2c(F)c(-c3ccc4sccc4c3)ccc12` [Compound 529], the pIC50 was 5.00 to 6.00. Regarding `CNc1nc(-c2cccnc2)nc2ccc(-c3ccc(F)c4ccoc34)cc12` [Compound 233], the pIC50 was > 6.00. With `Fc1ccc(-c2ccc3nc(-c4cccnc4)nc(-c4ncco4)c3c2)c(F)c1` [Compound 425] the figure was 5.00 to 6.00; with `CNc1nc(-c2cccnc2)nc2ccc(-c3ccc4c(c3)N(C)C(=O)CO4)cc12` [Compound 467], 5.00 to 6.00; with `CNc1nc(-c2cccnc2)nc2c(OC)cc(-c3ccccc3F)cc12` [Compound 254], 5.00 to 6.00. As for `CNc1nc(-c2cccnc2)nc2c(F)cc(-c3c(F)cccc3F)cc12` [Compound 575], the pIC50 is 5.00 to 6.00.

On to `Fc1cccc(-c2ccc3nc(-c4cccnc4)nc(N4CCc5cc(Cl)ccc54)c3c2)c1F` [Compound 75], for which the pIC50 is 5.00 to 6.00. On to `Fc1ccc2c(c1)N(c1nc(-c3cccnc3)nc3ccc(Br)cc13)CC2` [Compound 22], for which the pIC50 was 5.00 to 6.00. Regarding `CCc1nc2ccc(Nc3nc(-c4cccnc4)nc4ccc(OC)cc34)cc2o1` [Compound 40], the negative logarithm of the IC50 (pIC50) is < 5.00. `CNc1nc(-c2cccnc2)nc2ccc(-c3ccnc(C#N)c3)cc12` [Compound 167]: the pIC50 was 5.00 to 6.00. As for `CCOc1ccc2nc(-c3cccnc3)nc(Nc3cncc(C)c3)c2c1` [Compound 65], the pIC50 is 5.00 to 6.00. For the compound `CNc1nc(-c2cccnc2)nc2ccc(OCCCN3CCN(C)CC3)cc12` [Compound 136, N-methyl-6-(3-(4-methylpiperazin-1-yl)propoxy)-2-(pyridin-3-yl)quinazolin-4-amine tetrahydrochloride], the pIC50 is 5.00 to 6.00.

As for `Clc1ccc2nc(-c3cccnc3)nc(N3CCc4cccnc43)c2c1` [Compound 61], the pIC50 was 5.00 to 6.00. As for `Fc1cccc(-c2ccc3nc(-c4cccnc4)nc(NCCc4ccccn4)c3c2)c1` [Compound 336], the pIC50 is 5.00 to 6.00. Regarding `CNc1nc(-c2cccnc2)nc2c(C)c(-c3ccncc3)ccc12` [Compound 293], the pIC50 is 5.00 to 6.00. With `Clc1ccc2c(c1)CCN2c1nc(-c2cccnc2)nc2ccc(-c3ccc4c(c3)OCO4)cc12` [Compound 76] the figure was 5.00 to 6.00; with `Nc1nc(-c2cncnc2)nc2ccc(-c3cccc(F)c3)cc12` [Compound 213], < 5.00. With `Cc1ccc2c(c1)CCN2c1nc(-c2cccnc2)nc2ccc(-c3cccc(F)c3)cc12` [Compound 78] the figure was 5.00 to 6.00.

Consider `CNc1nc(-c2cccnc2)nc2ccc(-c3ccc(S(=O)(=O)C(C)C)cc3)cc12` [Compound 256], for which the negative-log IC50 (pIC50) was < 5.00. With `CNc1nc(-c2cnccn2)nc2cc(-c3cc(F)cc(F)c3)ccc12` [Compound 398] the figure was 5.00 to 6.00; with `CC(Nc1nc(-c2cccnc2)nc2ccc(-c3ccc(F)c(F)c3)cc12)c1ccccc1` (centres unmarked) [Compound 350], 5.00 to 6.00; with `CC(Nc1nc(-c2cccnc2)nc2ccc(-c3ccccc3F)cc12)c1ccccc1` (centres unmarked) [Compound 603], 5.00 to 6.00. Take `CNc1nc(-c2cccnc2)nc2cc(-c3cc(F)ccc3OC)ccc12` [Compound 316]: the pIC50 is 5.00 to 6.00. Regarding `CNc1nc(-c2cccnc2)nc2c(OC)cc(-c3cccc(F)c3F)cc12` [Compound 194], the pIC50 was 5.00 to 6.00. `Fc1cccc(-c2ccc3c(N4CCc5cc(Cl)ccc54)nc(-c4cccnc4)nc3c2)c1` [Compound 96]: the pIC50 was 5.00 to 6.00. Take `Fc1ccc(-c2ccc3nc(-c4cccnc4)nc(N4CCC4)c3c2)c(F)c1` [Compound 411]: the negative-log IC50 (pIC50) is 5.00 to 6.00.

Consider `CNc1nc(-c2cccnc2)nc2c(F)cc(-c3cc(F)ccc3F)cc12` [Compound 572], for which the pIC50 was 5.00 to 6.00. As to `CNc1nc(-c2cccnc2)nc2ccc(-c3cccc(S(N)(=O)=O)c3)cc12` [Compound 235], the pIC50 is < 5.00. With `CNc1nc(-c2cccnc2)nc2c(F)c(-c3ccc(OC)cc3)ccc12` [Compound 518] the figure was 5.00 to 6.00; with `CNc1nc(-c2cccnc2)nc2ccc(-c3c(F)cccc3F)cc12` [Compound 458], 5.00 to 6.00; with `CC(Nc1nc(-c2cccnc2)nc2cc(-c3ccccc3F)ccc12)c1ccccn1` (centres unmarked) [Compound 371], > 6.00. With `CNc1nc(-c2cccnc2)nc2ccc(-c3cccc(C)c3Cl)cc12` [Compound 268] the figure was < 5.00; with `CNc1nc(-c2cnccn2)nc2ccc(-c3cc(F)cc(F)c3)c(F)c12` [Compound 980], 5.00 to 6.00. In the case of `CCOc1cc(F)cc(-c2ccc3c(NC)nc(-c4cccnc4)nc3c2)c1` [Compound 145], the negative-log IC50 (pIC50) was 5.00 to 6.00.

As to `CC(=O)Nc1cccc(-c2ccc3c(N4CCc5cc(Cl)ccc54)nc(-c4cccnc4)nc3c2)c1` [Compound 102], the pIC50 was 5.00 to 6.00. In the case of `CNc1nc(-c2cccnc2)nc2ccc(-c3cccc(F)c3F)c(F)c12` [Compound 221], the pIC50 is 5.00 to 6.00. As for `Fc1cc(F)cc(-c2ccc3nc(-c4ccnnc4)nc(NCc4ccccn4)c3c2)c1` [Compound 328], the pIC50 was 5.00 to 6.00. In the case of `CNc1nc(-c2cccnc2)nc2c(F)cc(-c3cc(F)cc(F)c3)cc12` [Compound 569], the pIC50 was 5.00 to 6.00. `CNc1nc(-c2cccnc2)nc2ccc(-c3cc(F)cc(F)c3)c(OC)c12` [Compound 488]: the pIC50 was < 5.00.

As for `CNc1nc(-c2cccnc2)nc2c(F)c(-c3ccc4c(cnn4C)c3)ccc12` [Compound 532], the pIC50 is > 6.00.

As for `CNc1nc(-c2cccnc2)nc2c(-c3ccc(F)c(F)c3)ccc(OC)c12` [Compound 496], the negative logarithm of the IC50 (pIC50) is 5.00 to 6.00. With `CNc1nc(-c2cccnc2)nc2cc(-c3ccc(F)cc3F)c(F)cc12` [Compound 551], the pIC50 was 5.00 to 6.00. As to `CNc1nc(-c2cccnc2)nc2cc(-c3c(F)cc(F)cc3F)ccc12` [Compound 454], the pIC50 was 5.00 to 6.00. Turning to `COc1ccc2c(N3CCc4cc(Cl)ccc43)nc(-c3cccnc3)nc2c1` [Compound 12], the negative-log IC50 (pIC50) is 5.00 to 6.00. As for `COc1ccc2nc(-c3cccnc3)nc(Nc3ccc(C#N)cn3)c2c1` [Compound 46], the pIC50 was 5.00 to 6.00.

As for `CNc1nc(-c2cccnc2)nc2c(C)c(-c3cc(F)c(F)cc3F)ccc12` [Compound 287], the pIC50 was < 5.00. In the case of `CNc1nc(-c2cccnc2)nc2c(F)c(-c3ccccc3F)ccc12` [Compound 513], the pIC50 was 5.00 to 6.00. The same measure for `c1ccc(CNc2nc(-c3cccnc3)nc3ccc(-c4cc5ccccc5o4)cc23)nc1` [Compound 343]: > 6.00; for `COc1ccc2nc(-c3cccnc3)nc(Nc3cc(F)ccn3)c2c1` [Compound 31]: 5.00 to 6.00. Turning to `CNc1nc(-c2cccnc2)nc2c(C)c(-c3ccc(C)cc3)ccc12` [Compound 296], the negative logarithm of the IC50 (pIC50) is < 5.00. The same measure for `CNc1nc(-c2cccnc2)nc2c(F)c(-c3ccncc3)ccc12` [Compound 519]: 5.00 to 6.00; for `CNC(=O)c1cc(-c2ccc3nc(-c4cccnc4)nc(NC)c3c2)ccc1F` [Compound 180]: 5.00 to 6.00; for `Fc1ccc(F)c(-c2ccc3nc(-c4cccnc4)nc(NCCc4ccccn4)c3c2)c1` [Compound 339]: 5.00 to 6.00.

As to `Fc1ccc(-c2ccc3nc(-c4cccnc4)nc(-c4nccs4)c3c2)c(F)c1` [Compound 416], the pIC50 was > 6.00.

`COc1cc(F)ccc1-c1ccc2c(N3CCc4cc(Cl)ccc43)nc(-c3cccnc3)nc2c1` [Compound 110]: the pIC50 is > 6.00. As for `c1ccc(CNc2nc(-c3cccnc3)nc3cc(-c4cc5ccccc5o4)ccc23)nc1` [Compound 347], the negative-log IC50 (pIC50) was 5.00 to 6.00. Regarding `CNc1nc(-c2cccnc2)nc2ccc(-c3ccc4c(c3)C(=O)NCCO4)cc12` [Compound 479], the pIC50 was 5.00 to 6.00. Take `CNc1nc(-c2cccnc2)nc2cc(OC)c(-c3cccc(F)c3F)cc12` [Compound 230]: the pIC50 was 5.00 to 6.00.
